This is an account of results in patent publication US4552864A, “Gonadoliberin derivatives process for the preparation and pharmaceutical compositions thereof” (Reanal Finomvegyszergyar, priority 1982, dated 1985).

Where two headings read alike, the source gives them in different places.

This experiment has as its system adenohypophysis of female Sprague-Dawley rats (cell cultures), LH-hormone released from the cells. The note with it: for ED50 (LH release): rat pituitary cell culture, 4 hours incubation with 10^-7 to 10^-12 molar peptide; for relative activity (GnRH = 1.00): relative LH-releasing activity versus GnRH, from ED50 values.

Description: The LH-releasing activity of the new peptides according to the invention was tested by the following method, in which for comparison the known gonadoliberin was employed under the same conditions.
The adenohypophysis of female Sprague-Dawley rats weighing 150-200 g each was eliminated and pretrypsinized. Approximately 40-50 pituitaries were placed into separate flasks and allowed to stand in 25 ml of a 0.25% trypsin solution (Sigma, type 111) at 0° to 4° C. for 16 hours. The pituitaries were then stirred under a 5% CO2 atmosphere at 37° C. for 20-25 minutes while they were decomposed to their cells. To the cell suspension soya-bean trypsin inhibitor was added whereupon it was suspended and centrifuged in a Medium 199 solution (with Earle's salts, Flow Laboratories, UK) three times (800 x g, 10 minutes). The cell suspension was padded through a sterile metal filter and the number of cells in one ml was counted. After counting, 3 ml of the cell suspension was dispensed into culture flasks each containing 1.8×10^6 cells. The cells were cultured for 3 days at 37° C. under a 5% CO2 atmosphere. On the 3rd day the medium was replaced by a fresh one and incubation was continued for one more day. On the 4th day the medium was changed again and a medium containing a 10^-7 to 10^-12 molar solution of the peptides to be tested was added to the cell cultures. The cells were incubated with the peptide solutions for 4 hours, the culture solutions were eliminated and the amount of the LH-hormone released from the cells was determined by radioimunoassay.

On to “Glp-His-Trp-Ser-Tyr-D-Thx-Leu-Arg-Pro-Gly-NH2 [D-Thx^6 -GnRH]”, for which the “ED50 (LH release)” value was 28.92 pM and the “relative activity (GnRH = 1.00)” value was 11.9.
Take “Glp-His-Trp-Ser-Tyr-D-Cpa-Leu-Arg-Pro-Gly-NH2 [D-Cpa^6 -GnRH]”: the “ED50 (LH release)” value is 20.63 pM and the “relative activity (GnRH = 1.00)” value came out at 16.6.
As for “Gonadoliberin [GnRH, reference compound]”, the “relative activity (GnRH = 1.00)” value is 1.00. In addition, the ED50 (LH release) (unit as printed for GnRH) is 343 pM.
